Laboratory results: patent publication US9090944B2, “Biomarker DACT1 for gastric cancer” (The Chinese University of Hong Kong, priority 2011, dated 2015)

How the values were obtained:
AGS = experiment: Demethylation treatment with 5-Aza, DACT1 expression by semiquantitative RT-PCR; format: cell-based, human; conditions: 2 μM 5-Aza for 5 days
Procedure: (§1) Semiquantitative RT-PCR was performed in a total volume of 25 μL reaction containing GeneAmp 1×PCR Buffer II (Applied Biosystems), 2.5 mM MgCl2, 200 μM each of dNTP, 200 nM each of primers, 0.5 U of AmpliTaq Gold DNA polymerase (Applied Biosystems) and 30˜50 ng cDNA. The PCR program started with an initial denaturation at 95° C. for 10 min, followed by 32-35 cycles (94° C. for 30 sec, annealing temperature for 30 sec, and 72° C. for 30 sec) of amplification, with a final extension at 72° C. for 10 min. The PCR bands were visualized under ultraviolet light and photographed. The expression of the target gene was normalized by the expression of house keeping gene β-actin, which served as an internal control. Cells were seeded at a density of […]/100-mm dishes and grew for 24 hr. Cells were then treated with 2 μM 5-aza-2′-deoxycytidine (“5-Aza”) (Sigma-Aldrich) for 5 days. The 5-Aza was replenished every day. The gene expression of DACT1 was evaluated using semiquantitative RT-PCR.

KatoIII = experiment: as above; format: cell-based, human; conditions: 2 μM 5-Aza for 5 days
Procedure: as §1

Nc1ncn([C@H]2C[C@H](O)[C@@H](CO)O2)c(=O)n1 [5-Aza, 5-aza-2′-deoxycytidine]
DACT1 expression after demethylation treatment (AGS): restored DACT1 expression
DACT1 expression after demethylation treatment (KatoIII): restored DACT1 expression
